The text below walks through data of US10759835B2, “Monomeric streptavidin mutants, methods of using the same and processes of manufacturing proteins” (The Research Foundation for The State University of New York, priority 2016, dated 2020).

The test is described as follows: Fluorescence polarization spectroscopy, biotin dissociation rate (koff). Type of test: binding. Particulars: 37° C. As to the method: FIG. 4. In vitro characterization of purified mSA mutants. a) Stability of mSA-RF and mSA-RWT in PBS was measured by circular dichroism spectroscopy with or without biotin. b) Fluorescence polarization spectroscopy was used to measure the dissociation rate of biotin-fluorescein. The dissociation rate, koff, was computed by fitting normalized fluorescence polarization data, or bound fraction f, to an exponentially decaying function, i.e. ƒ=e^−k^off^*t The measurements were taken at 37° C. c) The equilibrium affinity of binding Kd between mSA-RF and biotin-fluorescein was measured by FP. d) mSA-S25H and mSA-RF were analyzed by size exclusion chromatography to estimate their molecular weights in solution. […]
The binding of biotinylated fluorescein (bf, AnaSpec) was measured using a microplate reader (SpectraMax® i3 Microplate reader from Molecular Devices) in flat bottom 96 well plates (Sterilin Ltd). […] After overnight incubation at room temperature, the fluorescence polarization values were measured and fit to the quadratic binding equation (Hsu and Park, 2010, J Mol Graph Model, 29, 295-308). […] To observe dissociation of bf, excess free biotin was added to a final concentration of 100 μM and recording of fluorescence was started immediately. The intensity of polarized fluorescence was measured at various time points and normalized with respect to the value at t=0 min. […]

For “Wt SA: wild type streptavidin, tetrameric, SEQ ID NO: 20 [reference compound]”, where the note is “dissociation half-life t1/2=0.693/koff, biotin-fluorescein”, the “t1/2” value was 12.5 ± 4.35 h. The “Koff(×10^−3 min^−1)” value (dissociation of biotin-fluorescein, excess free biotin 100 μM) is given as 0.923 ± 0.0253 ×10^−3 min^−1.
